For two molecules, EC50 results are on record in US20260209219A1, “SUBSTITUTED TETRAHYDROPYRROLO-PYRIDINONE COMPOUNDS AND THEIR USE IN TREATING MEDICAL CONDITIONS” (Karuna Therapeutics, Inc., priority 2022, published 2026).

What is called EC50 is the concentration at which the effect is half-maximal. High values mean lower potency in that assay, low ones higher potency in that assay.

One assay has as its target T1, hM4 receptors (Homo sapiens, UniProt P08173).
T1 construct: expressed in transfected cells; host or cells: CHO cells
T1 sequence (P08173 1-479): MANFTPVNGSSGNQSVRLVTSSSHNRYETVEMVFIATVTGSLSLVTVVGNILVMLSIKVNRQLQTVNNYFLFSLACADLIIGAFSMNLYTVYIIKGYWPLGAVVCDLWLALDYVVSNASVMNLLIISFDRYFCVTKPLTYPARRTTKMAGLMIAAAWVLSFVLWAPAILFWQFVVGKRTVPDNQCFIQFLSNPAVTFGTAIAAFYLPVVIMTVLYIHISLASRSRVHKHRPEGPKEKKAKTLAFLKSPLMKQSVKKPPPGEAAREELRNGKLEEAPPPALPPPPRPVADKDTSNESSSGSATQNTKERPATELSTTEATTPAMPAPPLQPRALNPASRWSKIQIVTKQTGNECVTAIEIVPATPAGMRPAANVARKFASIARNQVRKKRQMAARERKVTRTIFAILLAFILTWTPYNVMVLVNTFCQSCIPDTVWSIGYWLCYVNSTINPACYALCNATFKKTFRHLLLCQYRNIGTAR
As to the kind of experiment: Human M4 PAM pERK assay. The class given is cell-based. As to conditions: CHO cells expressing hM4; with EC20 of acetylcholine (10 nM final).

The target in a further assay is T2, rM4 receptors (Rattus norvegicus, UniProt P08485).
T2 construct: expressed in transfected cells; host or cells: CHO cells
T2 sequence (P08485 1-478): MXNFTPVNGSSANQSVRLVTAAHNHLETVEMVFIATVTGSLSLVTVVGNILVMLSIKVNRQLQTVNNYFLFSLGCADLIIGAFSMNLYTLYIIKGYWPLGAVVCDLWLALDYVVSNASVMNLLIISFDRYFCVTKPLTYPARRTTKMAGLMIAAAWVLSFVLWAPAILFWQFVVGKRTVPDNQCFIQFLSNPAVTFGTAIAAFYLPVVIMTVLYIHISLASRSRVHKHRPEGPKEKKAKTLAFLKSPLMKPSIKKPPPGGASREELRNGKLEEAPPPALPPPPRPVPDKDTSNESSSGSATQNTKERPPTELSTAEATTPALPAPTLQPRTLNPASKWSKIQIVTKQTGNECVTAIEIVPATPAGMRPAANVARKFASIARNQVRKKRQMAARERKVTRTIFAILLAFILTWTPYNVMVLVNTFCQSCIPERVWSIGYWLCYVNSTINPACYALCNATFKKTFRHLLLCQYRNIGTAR
Put plainly: Rat M4 PAM pERK assay. As to conditions: CHO cells expressing rM4; with EC20 of acetylcholine (10 nM final). The class given is cell-based.

As for `Cc1cc(=O)n(C)c2c1CN(C(=O)CC1CC1c1ccc(C(F)(F)F)cc1)C2` (single isomer, unassigned) [Compound I-7], the EC50 on hM4 receptors and on rM4 receptors was 100 to 500 nM each time.
As for `Cc1c2c(n(C)c(=O)c1F)CN(C(=O)CC1CC1c1ccc(C(F)(F)F)cc1)C2` (stereo not shown) [Compound I-26], the EC50 at hM4 receptors and on rM4 receptors was below 100 nM each time.
